Patent publication US20170129903A1, “COMPOUNDS COMPRISING 1,1a,2,5a-TETRAHYDROSPIRO[INDOLE-3,2a-PYRROLE]-2,5a-DIONE SYSTEM AS INHIBITORS P53-MDM2 PROTEIN-PROTEIN INTERACTION” (ADAMED SP. Z O.O., priority 2014, published 2017)

Key:
[1] = molecular target: T1, p53-Mdm2 interaction (N-terminal domain of Mdm2 protein, amino acids 1-111) (Homo sapiens, UniProt Q00987); experiment: Fluorescence polarization (FP) binding assay of p53-Mdm2 interaction; details: for Ki: FP assay, 130 nM Mdm2, FAM-labelled p53 peptide, Ki transformed from IC50 using Kenakin equation; for times more potent than the corresponding S/R (racemic) mixture: enantiopure S isomers vs racemic Compounds 71, 93 and 72, respectively
T1 construct: N-terminal domain of Mdm2 protein (amino acids 1-111)
Procedure: The inhibition of p53-Mdm2 interaction was measured using a fluorescence polarization (FP) binding assay. FP measures the rotational movement of molecules in a homogenous suspension. For this assay, N-terminal domain of Mdm2 protein (amino acids 1-111) is combined with a fluorescein-labelled (FAM) peptide derived from p53 trans-activation domain. Upon excitation of the fluorescent ligand with linearly polarized light, […]. If the peptide is bound by Mdm2, rotation will slow down and the perpendicular component will decrease. Disruption of the formation of the peptide-Mdm2 complex due to an inhibitor molecule binding to the p53 binding site of Mdm2 results in faster rotation of the peptide.
Fluorescence polarization experiments were read on Tecan Infinite M1000 reader with the 470 nm excitation and 520 nm emission filters for fluorescein. The fluorescence polarization was measured in black 96-well plates (Corning, CLS3991) in room temperature. Purity of Mdm2 was controlled at >95%. Reaction buffer was optimized by adding 5 mM DTT and 0.1% zwitterionic detergent CHAPS to reduce effect of nonspecific interactions.
The test was performed by combining successive dilution of compounds diluted in dimethyl sulfoxide (DMSO, 5% final concentration) with 130 nM Mdm2 in reaction buffer (PBS, 0.1% CHAPS, 5 mM DTT (dithiothreitol)). After 15 minutes of incubation in room temperature […] FAM-labelled peptide was added. Final reading was performed after 90 minutes of incubation. Dose-dependent binding curves and IC50 values were calculated using GraphPad Prism5 and next transformed to Ki values using Kenakin equation.

[2] = system: SJSA-1 osteosarcoma cell line; experiment: MTT cell viability assay; format: cell-based; details: 72 h incubation, average of 2-5 experiments
Procedure: The effect of the invented p53-Mdm2 inhibitors on cell viability has been assessed using MTT assay. It is a colorimetric assay that measures conversion of tetrazolium ring of the soluble yellow dye (MTT) into insoluble purple formazan. This process is catalysed solely in mitochondrial dehydrogenases of living cells.
Cells were seeded on 96-well plates and then treated with successive dilutions of tested compounds. After 72 h incubation, MTT was added to the final concentration 0.5 mg/ml. The cells were further incubated for the next 4 h. Then the solution was drained and the remaining formazan crystals were dissolved in 100 μl DMSO. […] All the MTT experiments were independently repeated 2-5 times. Dose-dependent binding curves and IC50 values were calculated using GraphPad Prism 5.

T1 sequence (Q00987 1-111): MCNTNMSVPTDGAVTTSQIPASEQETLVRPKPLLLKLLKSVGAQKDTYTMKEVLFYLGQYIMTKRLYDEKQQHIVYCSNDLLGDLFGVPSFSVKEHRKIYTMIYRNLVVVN

What does the source list for O=C1C(O)=C(c2ccccc2)C2(C(=O)Nc3cc(Cl)ccc32)N1c1cc(Cl)ccc1F (stereo not shown) [Compound 45, 6-chloro-1′-(5-chloro-2-fluorophenyl)-4′-hydroxy-3′-phenyl-1,1′,2,5′-tetrahydrospiro[indole-3,2′-pyrrole]-2,5′-dione]?
Ki [1]: 36 nM; IC50 ([2]; Homo sapiens, SJSA-1, 72 h): 29.9 µM

COc1ccc(N)cc1-n1cc2c(c1C(C)C)C1(C(=O)Nc3cc(Cl)ccc31)N(c1cc(Cl)ccc1C)C2=O (stereo not shown) [Compound 96, 5′-(5-amino-2-methoxyphenyl)-6-chloro-2′-(5-chloro-2-methylphenyl)-6′-(propan-2-yl)-1,2,3′,5′-tetrahydro-2′H-spiro [indole-3,1′-pyrrolo[3,4-c]pyrrole]-2,3′-dione] was tested. Which Ki [1] did it give?
The Ki was 4 nM.

And the IC50 ([2]; Homo sapiens, SJSA-1, 72 h)?
The IC50 was 0.3 µM.

Which Ki [1] does the source give for COc1cc2[nH]c(=O)[nH]c2cc1-n1cc2c(c1C(C)C)C1(C(=O)Nc3cc(Cl)ccc31)N(c1cc(Cl)ccc1C)C2=O (stereo not shown) [Compound 101, 6-chloro-2′-(5-chloro-2-methylphenyl)-5′-(6-methoxy-2-oxo-2,3-dihydro-1H-1,3-benzodiazol-5-yl)-6′-(propan-2-yl)-1,2,3′,5′-tetrahydro-2′H-spiro[indole-3,1′-pyrrolo[3,4-c]pyrrole]-2,3′-dione] here?
The Ki was 4.7 nM.

And the IC50 ([2]; Homo sapiens, SJSA-1, 72 h)?
The IC50 was 1.77 µM.

For CC1(c2c3c(nn2CC2CCCN2)C(=O)N(c2cccc(Cl)c2)C32C(=O)Nc3cc(Cl)ccc32)CC1 (stereo not shown) [Compound 28, 6-chloro-5′-(3-chlorophenyl)-3′-(1-methylcyclopropyl)-2′-(pyrrolidin-2-ylmethyl)-1,2,5′,6′-tetrahydro-2′H-spiro [indole-3,4′-pyrrolo[3,4-c]pyrazole]-2,6′-dione], which Ki [1] is on record?
Its Ki is 1460 nM.

What about the IC50 ([2]; Homo sapiens, SJSA-1, 72 h) of the same compound?
Its IC50 is 32 µM.

How did the Ki [1] turn out when CC(C)c1c2c(nn1CC1CCCN1C(=O)N(C)C)C(=O)N(c1cccc(Cl)c1)C21C(=O)Nc2cc(Cl)ccc21 (stereo not shown) [Compound 34, 2-[6-chloro-5′-(3-chlorophenyl)-2,6′-dioxo-3′-(propan-2-yl)-1,2,5′,6′-tetrahydro-2′H-spiro[indole-3,4′-pyrrolo [3,4-c]pyrazole]-2′-ylmethyl]-N,N-dimethylpyrrolidine-1-carboxamide] was run?
Its Ki is 235 nM.

What about the IC50 ([2]; Homo sapiens, SJSA-1, 72 h) of the same compound?
The IC50 was 24.2 µM.

How did the Ki [1] turn out when COc1ccccc1-n1cc2c(c1C(C)C)C1(C(=O)Nc3cc(Cl)ccc31)N(c1cc(Cl)ccc1NS(C)(=O)=O)C2=O (stereo not shown) [Compound 92, N-{4-chloro-2-[6-chloro-5′-(2-methoxy-phenyl)-2,3′-dioxo-6′-(propan-2-yl)-1,2,3′,5′-tetrahydro-2′H-spiro[indole-3,1′-pyrrolo[3,4-c]pyrrole]-2′-yl]phenyl} methanesulfonamide] was run?
Its Ki is 6.6 nM.

What about the IC50 ([2]; Homo sapiens, SJSA-1, 72 h) of the same compound?
Its IC50 is 1.07 µM.

Which Ki [1] does the source give for Cc1ncc(Cl)cc1N1C(=O)c2n[nH]c(C(C)C)c2C12C(=O)Nc1cc(Cl)ccc12 (stereo not shown) [Compound 84, 6-chloro-5′-(5-chloro-2-methylpyridin-3-yl)-3′-(propan-2-yl)-1,2,5′,6′-tetrahydro-2′H-spiro[indole-3,4′-pyrrolo[3,4-c]pyrazole]-2,6′-dione] here?
Its Ki is 152 nM.

What about the IC50 ([2]; Homo sapiens, SJSA-1, 72 h) of the same compound?
The IC50 was 46.1 µM.

What does the source list for COc1ccc(Cl)cc1N1C(=O)c2n[nH]c(C(C)C)c2C12C(=O)Nc1cc(Cl)ccc12 (stereo not shown) [Compound 25, 6-chloro-5′-(5-chloro-2-methoxyphenyl)-3′-(propan-2-yl)-1,2,5′,6′-tetrahydro-2′H-spiro[indole-3,4′-pyrrolo[3,4-c]pyrazole]-2,6′-dione]?
Ki [1]: 94 nM; IC50 ([2]; Homo sapiens, SJSA-1, 72 h): 10.2 µM

Which results are given for COc1ccc(Cl)cc1N1C(=O)c2nn(-c3ccccc3OC)c(C(C)C)c2C12C(=O)Nc1cc(Cl)ccc12 (stereo not shown) [Compound 30, 6-chloro-5′-(5-chloro-2-methoxyphenyl)-2′-(2-methoxyphenyl)-3′-(propan-2-yl)-1,2,5′,6′-tetrahydro-2′H-spiro[indole-3,4′-pyrrolo[3,4-c]pyrazole]-2,6′-dione]?
Ki [1]: 8.2 nM; IC50 ([2]; Homo sapiens, SJSA-1, 72 h): 1.36 µM

What does the source list for COc1ccccc1-n1nc2c(c1C(C)C)[C@@]1(C(=O)Nc3cc(Cl)ccc31)N(c1cc(Cl)cnc1C)C2=O [Compound 80, (3S)-6-chloro-5′-(5-chloro-2-methyl-pyridin-3-yl)-2′-(2-methoxyphenyl)-3′-(propan-2-yl)-1,2,5′,6′-tetrahydro-2′H-spiro [indole-3,4′-pyrrolo[3,4-c]pyrazole]-2,6′-dione]?
Ki [1]: 1.9 nM; times more potent than the corresponding S/R (racemic) mixture [1]: about 2 times; IC50 ([2]; Homo sapiens, SJSA-1, 72 h): 0.28 µM

What does the source list for CC(C)(C)c1[nH]nc2c1C1(C(=O)Nc3cc(Cl)ccc31)N(c1cccc(Cl)c1)C2=O (stereo not shown) [Compound 20, 3′-tert-butyl-6-chloro-5′-(3-chlorophenyl)-1,2,5′,6′-tetrahydro-2′H-spiro[indole-3,4′-pyrrolo[3,4-c]pyrazole]-2,6′-dione]?
Ki [1]: 24 nM; IC50 ([2]; Homo sapiens, SJSA-1, 72 h): 21.2 µM

Which Ki [1] does the source give for COc1ccc(Cl)cc1N1C(=O)c2n[nH]c(C3(C)CC3)c2C12C(=O)Nc1cc(Cl)ccc12 (stereo not shown) [Compound 22, 6-chloro-5′-(5-chloro-2-methoxyphenyl)-3′-(1-methylcyclopropyl)-1,2,5′,6′-tetrahydro-2′H-spiro[indole-3,4′-pyrrolo [3,4-c]pyrazole]-2,6′-dione] here?
The Ki was 120 nM.

What about the IC50 ([2]; Homo sapiens, SJSA-1, 72 h) of the same compound?
Its IC50 is 6.95 µM.

With COc1ccccc1-n1nc2c(c1C(C)C)[C@@]1(C(=O)Nc3cc(Cl)ccc31)N(c1cncc(Cl)c1)C2=O [Compound 81, (3S)-6-chloro-5′-(5-chloropyridin-3-yl)-2′-(2-methoxyphenyl)-3′-(propan-2-yl)-1,2,5′,6′-tetrahydro-2′H-spiro-[indole-3,4′-pyrrolo[3,4-c]pyrazole]-2,6′-dione] as the compound, how does the Ki [1] read?
The Ki was 2.2 nM.

And the “times more potent than the corresponding S/R (racemic) mixture” value [1]?
Its value is “about 2 times”.

What about the IC50 [2] of the same compound?
Its IC50 is 0.8 µM.

With COc1ccc(C(=O)NCCO)cc1-n1cc2c(c1C(C)C)C1(C(=O)Nc3cc(Cl)ccc31)N(c1cc(Cl)ccc1C)C2=O (stereo not shown) [Compound 100, 3-[6-chloro-2′-(5-chloro-2-methylphenyl)-2,3′-dioxo-6′-(propan-2-yl)-1,2,3′,5′-tetrahydro-2′H-spiro[indole-3,1′-pyrrolo [3,4-c]pyrrole]-5′-yl]-N-(2-hydroxyethyl)-4-methoxybenzamide] as the compound, how does the Ki [1] read?
Its Ki is 3.5 nM.

What about the IC50 ([2]; Homo sapiens, SJSA-1, 72 h) of the same compound?
Its IC50 is 1.21 µM.

O=C1C(O)=C(c2ccccc2)C2(C(=O)Nc3ccc(Cl)cc32)N1c1cccc(Cl)c1 (stereo not shown) [Compound 38, 5-chloro-1′-(3-chlorophenyl)-4′-hydroxy-3′-phenyl-1,1′,2,5′-tetrahydrospiro[indole-3,2′-pyrrole]-2,5′-dione] was tested. Which Ki [1] did it give?
Its Ki is 550 nM.

Which Ki [1] does the source give for COc1cccc(OC)c1-n1nc2c(c1C(C)C)C1(C(=O)Nc3cc(Cl)ccc31)N(c1cc(Cl)ccc1C)C2=O (stereo not shown) [Compound 70, 6-chloro-5′-(5-chloro-2-methylphenyl)-2′-(2,6-dimethoxyphenyl)-3′-(propan-2-yl)-1,2,5′,6′-tetrahydro-2′H-spiro[indole-3,4′-pyrrolo[3,4-c]pyrazole]-2,6′-dione] here?
The Ki was 120 nM.

For CC(C)c1[nH]nc2c1C1(C(=O)Nc3cc(Cl)ccc31)N(c1cncc(Cl)c1)C2=O (stereo not shown) [Compound 83, 6-chloro-5′-(5-chloropyridin-3-yl)-3′-(propan-2-yl)-1,2,5′,6′-tetrahydro-2′H-spiro [indole-3,4′-pyrrolo[3,4-c]pyrazole]-2,6′-dione], which Ki [1] is on record?
The Ki was 152 nM.

With CCOC(=O)/C=C/C(=O)Nc1cccc(C(=O)C2=C(O)C(=O)N(c3cccc(Cl)c3)C23C(=O)Nc2cc(Cl)ccc23)c1 (stereo not shown) [Compound 17, ethyl (2E)-3-[(3-{[6-chloro-1′-(3-chloro-phenyl)-4′-hydroxy-2,5′-dioxo-1,1′,2,5′-tetrahydrospiro[indole-3,2′-pyrrole]-3′-yl]carbonyl}phenyl)carbamoyl]prop-2-enoate] as the compound, how does the Ki [1] read?
Its Ki is 57 nM.

How did the Ki [1] turn out when CC1(C(=O)C2=C(O)C(=O)N(c3cc(Cl)ccc3F)C23C(=O)Nc2cc(Cl)ccc23)CC1 (stereo not shown) [Compound 1, 6-chloro-1′-(5-chloro-2-fluorophenyl)-4′-hydroxy-3′-(1-methylcyclopropane-carbonyl)-1,1′,2,5′-tetrahydrospiro[indole-3,2′-pyrrole]-2,5′-dione] was run?
Its Ki is 354 nM.

CC(C)(C)SC1=C(O)C(=O)N(c2cccc(Cl)c2)C12C(=O)Nc1cc(Cl)ccc12 (stereo not shown) [Compound 58, 3′-(tert-butylsulfanyl)-6-chloro-1′-(3-chlorophenyl)-4′-hydroxy-1,1′,2,5′-tetrahydrospiro[indole-3,2′-pyrrole]-2,5′-dione] was tested. Which Ki [1] did it give?
Its Ki is 82 nM.

Which Ki [1] does the source give for CC(C)c1[nH]nc2c1C1(C(=O)Nc3cc(Cl)ccc31)N(c1cc(Cl)ccn1)C2=O (stereo not shown) [Compound 82, 6-chloro-5′-(4-chloropyridin-2-yl)-3′-(propan-2-yl)-1,2,5′,6′-tetrahydro-2′H-spiro [indole-3,4′-pyrrolo[3,4-c]pyrazole]-2,6′-dione] here?
The Ki was 425 nM.
